“Also recorded” adds a separate entry of the source.
Target: T1, AR (Homo sapiens, UniProt P10275)
T1 sequence (P10275 1-920): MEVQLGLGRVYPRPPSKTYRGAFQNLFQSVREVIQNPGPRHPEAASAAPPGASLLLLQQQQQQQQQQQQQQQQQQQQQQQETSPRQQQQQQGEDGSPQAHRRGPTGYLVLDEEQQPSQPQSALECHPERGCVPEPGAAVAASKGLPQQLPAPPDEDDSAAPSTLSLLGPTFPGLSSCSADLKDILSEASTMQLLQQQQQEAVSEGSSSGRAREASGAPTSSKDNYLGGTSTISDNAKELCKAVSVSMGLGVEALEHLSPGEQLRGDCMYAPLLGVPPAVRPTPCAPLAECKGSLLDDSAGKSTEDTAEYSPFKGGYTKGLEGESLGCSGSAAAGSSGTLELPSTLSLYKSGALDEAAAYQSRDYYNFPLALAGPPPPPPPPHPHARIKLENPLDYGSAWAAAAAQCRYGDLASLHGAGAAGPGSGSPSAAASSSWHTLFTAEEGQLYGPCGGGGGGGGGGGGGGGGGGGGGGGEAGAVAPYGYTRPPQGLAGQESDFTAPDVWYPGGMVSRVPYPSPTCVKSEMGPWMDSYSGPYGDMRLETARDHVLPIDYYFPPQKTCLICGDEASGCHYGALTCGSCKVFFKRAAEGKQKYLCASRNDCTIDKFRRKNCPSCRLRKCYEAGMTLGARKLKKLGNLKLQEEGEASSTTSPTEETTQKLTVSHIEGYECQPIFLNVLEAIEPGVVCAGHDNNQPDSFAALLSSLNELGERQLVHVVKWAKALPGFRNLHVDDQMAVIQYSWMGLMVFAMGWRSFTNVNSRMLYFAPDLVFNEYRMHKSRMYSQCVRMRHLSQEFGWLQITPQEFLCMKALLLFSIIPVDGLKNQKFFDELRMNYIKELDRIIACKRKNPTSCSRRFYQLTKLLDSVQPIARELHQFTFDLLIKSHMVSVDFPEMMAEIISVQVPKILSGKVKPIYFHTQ
Test: FRET-based AR conformation change reporter (CFP-AR-YFP, CARY) in GT1-7 cells
Assay type: cell-based, mouse
Design: Full length AR with cyan fluorescent protein (CFP) or yellow fluorescent protein (YFP) fused to either end (CARY); expressed in transfected cells
Description: Creation of stable C-AR-Y reporter cell lines. Cell lines listed above were either transfected with a plasmid or a virus containing the CFP-AR-YFP construct preceding an IRES and hygromycin resistance gene and clonal stable cell lines selected. Qualification criteria for the transfected cell lines were described by Jones et al, ACS Chem Biol, 3(7):412-8 (2008).
Screen for AR-modulators. Screening was performed essentially as described by Jones et al, ACS Chem Biol, 3(7):412-8 (2008). Briefly, C-AR-Y reporter GTI-7 were transferred to 96 well plates and treated with library compounds for 24 hours. […] The compounds to be tested were from the NCI/DTP Open Chemical Repository's Approved Oncology Drugs Set II, Diversity Set II and Mechanistic Set. […] After 24 hours, medium was aspirated and FRET was measured as previously described using a monochromator-based fluorescence plate reader (M1000, Tecan, Inc.). Jones et al, ACS Chem Biol, 3(7):412-8 (2008). […]
In order to identify potential cell-type selective AR modulators, the FRET-based assay of AR conformation change was utilized. […] This produces an accurate and quantifiable read-out of AR activity. […] Candidate hits were then further evaluated by dose response. […] In addition to FRET, AR transcriptional activity was also assessed in several cell lines by transfecting cells with a luciferase reporter driven by the human PSA promoter. […]

Question: For `C=C(NC(=O)C(=C)NC(=O)c1csc(C2=N[C@@H]3c4csc(n4)[C@H]4NC(=O)c5csc(n5)[C@H]([C@](C)(O)[C@@H](C)O)NC(=O)[C@H]5CSC(=N5)/C(=C/C)NC(=O)[C@H]([C@@H](C)O)NC(=O)c5csc(n5)[C@]3(CC2)NC(=O)[C@H](C)NC(=O)C(=C)NC(=O)C(=C)NC(=O)[C@H](C(C)C)N[C@@H]2C=Cc3c([C@H](C)O)cc(nc3[C@H]2O)C(=O)O[C@@H]4C)n1)C(N)=O` [NSC285116, siomycin A], which “inhibition of DHT-induced AR conformation change” value (dose response, GT1-7 cells, FIG. 1B) is on record?
Answer: The value was “dose dependent inhibition”.

Question: What about the “AR inhibitor (antagonist) activity in words” value (neuronal GT1-7 cells, FRET or luciferase) of the same compound?
Answer: The value was “greatest potency; also recorded: demonstrated antagonist activity”.
